Legend:
[1] = system: human red blood cells (RBCs); assay: In vitro lysis of human erythrocytes (hemoglobin release, optical density at 550 nm); format: cell-based
Protocol: Lysis of human red blood cells (RBCs) was quantitated by measuring the release of hemoglobin in the supernatants by observation of increases in optical density at 550 nanometers (nm), as described previously (Mehta, et al., Biochem. Biophys, Acta., Vol. 770-, pp 230-234 (1984). Free-RA dissolved in dimethyl formamide (DMFA), was added to the RBCs. Results with appropriate solvent controls, empty liposomes, and empty liposomes plus free-drug were also noted. Release of hemoglobin by hypotonic lysis of the same number of human RBCs by water was taken as a 100% positive control, while cells treated with PBS were taken as negative controls.
Preparations of L-RA comprising various lipids were incubated at a concentration of 20 microgram (µg) RA per ml with RBCs in PBS for 4 hr at 37°C.
A further experiment concerning the toxicity over time of free RA and L-RA (DMPC:DMPG-7:3) toward RBC was conducted. Human erythrocytes were incubated at 37°C in PBS with 10 ug/ml free RA or 120 ug/ml L-RA, and RBC lysis monitored over a period of 5 hr. […] When a similar manipulation was performed with L-RA (DMPC:DMPG(7:3)) at a RA concentration of 120 ug/ml, little RBC lysis occurred (e.g., less than 10% after […]).
A study was also conducted concerning the effects upon RBC lysis in 2 hr of free RA and L-RA (DMPC:DMPG(7:3)) at various concentrations. […]

[2] = in vivo; conditions: mouse, in vivo, iv
Protocol: (§1) The acute toxicity of free and liposomal all-trans retinoic acid was studied in CD1 mice. Free all-trans retinoic acid was prepared as an emulsion in normal saline containing 10% DMSO and 2% Tween 80 at a concentration of 3 to 5 mg/ml. Liposomal all-trans retinoic acid was prepared using a lipid:drug ratio of 15:1. The final concentration of all-trans retinoic acid in the liposomal preparation was 3 mg/ml. Empty liposomes of the same lipid composition (DMPC:DMPG 7:3) were also tested at doses equivalent to 80 mg/kg, 100 mg/kg, and 120 mg/kg of liposomal-all trans retinoic acid. Normal saline containing 10% DMSO and 2% Tween 80 was also tested as a control at a dose equivalent to 50 mg/kg of free all-trans retinoic acid. All drugs tested were injected intravenously via tail vein as a single bolus. The injected volumes of free and liposomal-all-trans retinoic acid were the same for each dose.

[3] = system: CD1 mice; assay: in vivo; conditions: for Number Animals with seizures / Number Animals alive (72 hr): CD1, mouse, in vivo, iv
Protocol: as §1

[4] = system: human monocytic cell line THP-1; assay: Cell growth inhibition, 72 hr, 96 well microtiter plate; format: cell-based; conditions: concentrations of less than 1 µg RA/ml, 72 hr at 37°C
Protocol: (§2) Cells of the human monocytic cell line THP-1 and of the human histiocytic cell line U-937 were inoculated at about 20,000 cells per well in aliquots of eucaryotic cell culture medium contained in wells of a 96 well microtiter plate. The medium in various wells contained different amount of free RA or L-RA (DMPC:DMPG 7:3). The cells were incubated for 72 hr at 37°C and cell growth determined and compared to that of controls without any form of retinoic acid. […] At concentrations of less than 1 µg RA/ml, both preparations inhibited cell growth by over 90%.

[5] = system: human histiocytic cell line U-937; assay: as above; format: cell-based; conditions: retinoic acid concentration of about 10 ug/ml
Protocol: as §2
Cells of the human histiocytic cell line U-937 were distributed and cultured under the same conditions as the THP-1 cells in the prior experiment. […] It should be noted that the U-937 cells were almost completely growth-inhibited by L-RA at a retinoic acid concentration of about 10 ug/ml while this amount of free RA inhibited growth less than 50%.

[6] = system: human monocytic leukemia THP-1 cells; assay: Morphological change associated with cellular differentiation; format: cell-based; conditions: 0.3 µg RA/ml, 72 hr incubation
Protocol: The generally ovate form was retained when the cells were cultured in the absence of any free or liposomal retinoic acid.

[7] = system: tissue transglutaminase; assay: Induction of tissue transglutaminase activity in THP-1 cells (marker for monocytic cell differentiation); format: cell-based, human; conditions: 0.3 µg/ml or 0.6 µg/ml, 24 hr
[8] = system: M5076; assay: In vitro sensitivity of M5076 cells to retinoic acid; format: cell-based
[9] = system: THP-1 cells; assay: Tumor formation of in vitro treated THP-1 cells injected subcutaneously into mice; format: in vivo; conditions: cells treated in vitro for 72 hours, injected subcutaneously into male mice

CC1=C(/C=C/C(C)=C/C=C/C(C)=C/C(=O)O)C(C)(C)CCC1 [Free RA, all-trans retinoic acid]
RBC lysis over time ([1]; 10 ug/ml, 37°C in PBS, between about 1 hr and about 3 hr): extensively lysed a large majority of the erythrocytes
RBC lysis in 2 hr as a function of concentration ([1]; between about 5 ug RA/ml and about 30 ug RA/ml, 2 hr): linearly increasing RBC lysis
LD50 at 72 h [2]: 32 mg/kg
Number Animals with seizures ([3]; 10 mg/kg): 0/6
Number Animals alive (72 hr) ([3]; 10 mg/kg): 6/6
Number Animals with seizures ([3]; 20 mg/kg): 6/6
Number Animals alive (72 hr) ([3]; 20 mg/kg): 5/6
Number Animals with seizures ([3]; 30 mg/kg): 6/6
Number Animals alive (72 hr) ([3]; 30 mg/kg): 4/6
Number Animals with seizures ([3]; 40 mg/kg): 3/3
Number Animals alive (72 hr) ([3]; 40 mg/kg): 0/3
Number Animals with seizures ([3]; 50 mg/kg): 3/3
Number Animals alive (72 hr) ([3]; 50 mg/kg): 0/3
maximum non-toxic dose ([3]; i.v. single bolus, CD1 mice): 10 mg/kg
inhibition of THP-1 cell growth [4]: over 90%
inhibition at 10 µg/mL [5]: < 50%
morphological appearance of THP-1 cells [6]: more flattened and spread morphological appearance
tissue transglutaminase enzymic activity [7]: increased levels of tissue transglutaminase enzymic activity
sensitivity of M5076 cell line in in vitro studies [8]: resistant
tumor development of treated THP-1 cells in mice [9]: failed to develop into tumors
